# Patent publication US10450279B2 (priority 2014, dated 2019)
# How the values were obtained:
# Format in all cases: cell-based
# Settings in all cases: relative growth vs active compound-free control (100%), 405 nm, 7 days after inoculation
# [1] = system: Septoria tritici; experiment: Activity against leaf blotch on wheat caused by Septoria tritici (Septtr), microtiterplate test
# [2] = system: Pyricularia oryzae
# [3] = system: Botrytis cinerea; experiment: Activity against the grey mold Botrytis cinerea in the microtiterplate test (Botrci)
Structure (SMILES),Growth (%) at 8 ppm Septtr [1] [%],Growth (%) at 31 ppm Pyrior [2] [%],Growth (%) at 31 ppm Botrci [3] [%]
CC(O)(Cn1cncn1)c1ccc(Oc2ccc(Cl)cc2)cc1C(F)(F)F (stereo not drawn) [compound 24],0,0,0
CC(O)(Cn1cncn1)c1ccc(Oc2ccc(Cl)cc2Cl)cc1C(F)(F)F (stereo not drawn) [compound 25],0,2,3
CC(O)(Cn1cncn1)c1ccc(Oc2ccccc2C(F)(F)F)cc1C(F)(F)F (stereo not drawn) [compound 26],1,,
CC(O)(Cn1cncn1)c1ccc(Oc2ccc(C(F)(F)F)cc2)cc1C(F)(F)F (stereo not drawn) [compound 27],0,1,18
CC(O)(Cn1cncn1)c1ccc(Oc2ccc(F)cc2)cc1C(F)(F)F (stereo not drawn) [compound 28],0,7,0
CC(O)(Cn1cncn1)c1ccc(Oc2ccc(F)cc2F)cc1C(F)(F)F (stereo not drawn) [compound 29],5,0,0
CC(O)(Cn1cncn1)c1ccc(Oc2ccc(Cl)cc2)cc1Cl (stereo not drawn) [compound 31],0,2,3
CC(O)(Cn1cncn1)c1ccc(Oc2ccc(Cl)cc2Cl)cc1Cl (stereo not drawn) [compound 32],12,3,9
CC(O)(Cn1cncn1)c1ccc(Oc2ccc(F)cc2)cc1Cl (stereo not drawn) [compound 33],1,0,0
CC(O)(Cn1cncn1)c1ccc(Oc2ccc(F)cc2F)cc1Cl (stereo not drawn) [compound 34],0,0,1
CC(O)(Cn1cncn1)c1ccc(Oc2ccccc2C(F)(F)F)cc1Cl (stereo not drawn) [compound 35],0,1,1
CC(O)(Cn1cncn1)c1ccc(Oc2ccc(C(F)(F)F)cc2)cc1Cl (stereo not drawn) [compound 36],,14,
OC(Cn1cncn1)(c1ccc(Oc2ccc(F)cc2)cc1Cl)C1CC1 (stereo not drawn) [compound 37],0,1,1
OC(Cn1cncn1)(c1ccc(Oc2ccccc2C(F)(F)F)cc1Cl)C1CC1 (stereo not drawn) [compound 38],1,1,2
OC(Cn1cncn1)(c1ccc(Oc2ccc(Cl)cc2Cl)cc1Cl)C1CC1 (stereo not drawn) [compound 39],14,2,0
OC(Cn1cncn1)(c1ccc(Oc2ccc(C(F)(F)F)cc2)cc1Cl)C1CC1 (stereo not drawn) [compound 40],2,1,8
OC(Cn1cncn1)(c1ccc(Oc2ccc(F)cc2F)cc1Cl)C1CC1 (stereo not drawn) [compound 41],0,0,1
OC(Cn1cncn1)(c1ccc(Oc2ccc(Cl)cc2)cc1Cl)C1CC1 (stereo not drawn) [compound 42],0,1,3
CC(C)(C)C(O)(Cn1cncn1)c1ccc(Oc2ccc(Cl)cc2)cc1 (stereo not drawn) [compound 43],0,,3
CC(C)(C)C(O)(Cn1cncn1)c1ccc(Oc2ccc(F)cc2)cc1 (stereo not drawn) [compound 44],0,0,1
CC(C)(C)C(O)(Cn1cncn1)c1ccc(Oc2ccc(F)cc2F)cc1 (stereo not drawn) [compound 45],0,1,0
CC(C)(C)C(O)(Cn1cncn1)c1ccc(Oc2ccc(Cl)cc2Cl)cc1 (stereo not drawn) [compound 46],4,2,6
CC(C)(C)C(O)(Cn1cncn1)c1ccc(Oc2ccccc2C(F)(F)F)cc1 (stereo not drawn) [compound 47],0,1,15
CC(C)(C)C(O)(Cn1cncn1)c1ccc(Oc2ccc(C(F)(F)F)cc2)cc1 (stereo not drawn) [compound 48],0,1,
CCC(O)(Cn1cncn1)c1ccc(Oc2ccc(Cl)cc2)cc1Cl (stereo not drawn) [compound 49],3,1,2
CCC(O)(Cn1cncn1)c1ccc(Oc2ccc(F)cc2)cc1Cl (stereo not drawn) [compound 50],0,9,2
CCC(O)(Cn1cncn1)c1ccc(Oc2ccc(F)cc2F)cc1Cl (stereo not drawn) [compound 51],0,0,0
CCC(O)(Cn1cncn1)c1ccc(Oc2ccc(Cl)cc2Cl)cc1Cl (stereo not drawn) [compound 52],0,1,3
CCC(O)(Cn1cncn1)c1ccc(Oc2ccccc2C(F)(F)F)cc1Cl (stereo not drawn) [compound 53],0,2,3
CCC(O)(Cn1cncn1)c1ccc(Oc2ccc(C(F)(F)F)cc2)cc1Cl (stereo not drawn) [compound 54],0,2,4
